Test results from patent US9238039B2, “Pyrazolo[1,5-A]pyrimidines for antiviral treatment” (Gilead Sciences, Inc., priority 2010, dated 2016).

System: RSV strain A2
Test: RSV antiviral cytoprotection assay in Hep2 cells (96-well and 384-well format, Cell TiterGlo read-out)
Assay type: cell-based, Respiratory Syncytial Virus (RSV)
Conditions: human respiratory syncytial virus; for inhibition at 0.5 µM: HEp-2, 0.5 uM, RSV-induced cytopathic effect in Hep2 cells, calculated from fitted dose response curve, normalized to 0% and 100%; for EC50: HEp-2, RSV-induced cytopathic effects, Hep2 cells, class symbols

SMILES | EC50 [nM] | inhibition at 0.5 µM [%]
CS(=O)(=O)Nc1ccc(Cl)cc1C(=O)N1CCCC[C@H]1c1cc2nc(C3CCC3)cc(N3CCOCC3)n2n1 [Compound 73] | 0.1 to 100 | 99
CS(=O)(=O)Nc1ccc(Cl)cc1C(=O)N1CCCC[C@H]1c1cc2nc(N3CCC3)cc(N3CCOC3)n2n1 [Compound 74] | 0.1 to 100 | 100
CS(=O)(=O)Nc1ccc(Cl)cc1C(=O)N1CCCC[C@H]1c1cc2nc(N3CCC3)cc(N3CC4(COC4)C3)n2n1 [Compound 75] | 0.1 to 100 | 100
CN(C)[C@H]1CCN(c2cc(N3CCC3)nc3cc([C@@H]4CCCCN4C(=O)c4cc(Cl)ccc4NS(C)(=O)=O)nn23)C1 [Compound 76] | 0.1 to 100 | 100
CS(=O)(=O)Nc1ccc(Cl)cc1C(=O)N1CCCC[C@H]1c1cc2nc(N3CC(O)C3)cc(N3CCOC3)n2n1 [Compound 77] | 0.1 to 100 | 100
CNC1CCN(c2nc3cc([C@@H]4CCCCN4C(=O)c4cc(Cl)ccc4NS(C)(=O)=O)nn3cc2C)C1 (some centres unmarked) [Compound 78] | 0.1 to 100 | 98
CS(=O)(=O)Nc1ccc(Br)cc1C(=O)N1CCCC[C@H]1c1cc2nc(N3CCC3)cc(N3CCOCC3)n2n1 [Compound 79] | 0.1 to 100 | 100
CS(=O)(=O)Nc1ccc(Br)cc1C(=O)N1CCCC[C@H]1c1cc2nc(N3CC(O)C3)cc(N3CCOCC3)n2n1 [Compound 80] | 0.1 to 100 | 100
CS(=O)(=O)Nc1ccc(Cl)cc1C(=O)N1CCCC[C@H]1c1cc2nc(N3CC(O)C3)cc(N3CCC(O)CC3)n2n1 [Compound 81] | 0.1 to 100 | 100
Cc1cc(N2CC(O)C2)nc2cc([C@@H]3CCCCN3C(=O)c3cc(Br)ccc3NS(C)(=O)=O)nn12 [Compound 82] | 0.1 to 100 | 100
CS(=O)(=O)Nc1ccc(Cl)cc1C(=O)N1CCCC[C@H]1c1cc2nc(N3CC(O)C3)cc(N3CCN(CC(F)(F)F)CC3)n2n1 [Compound 83] | 0.1 to 100 | 98
CS(=O)(=O)Nc1ccc(Cl)cc1C(=O)N1CCCC[C@H]1c1cc2nc(N3CCC3)cc(N3CCN(CC(F)(F)F)CC3)n2n1 [Compound 84] | 0.1 to 100 | 100
Cc1ccc(NS(C)(=O)=O)c(C(=O)N2CCCC[C@H]2c2cc3nc(C)c(C)c(-c4ccccc4)n3n2)c1 [Compound 86] | 0.1 to 100 | 99
Cc1ccc(NS(C)(=O)=O)c(C(=O)N2CCCC[C@H]2c2cc3nc(C)c(C)c(C4CC4)n3n2)c1 [Compound 87] | 101 to 1000 | 84
CC(=O)Nc1c(C)c(C)nc2cc([C@@H]3CCCCN3C(=O)c3cc(C)ccc3NS(C)(=O)=O)nn12 [Compound 88] | 0.1 to 100 | 98
CC1(O)CN(c2cc(N3CCC3)nc3cc([C@@H]4CCCCN4C(=O)c4cc(Cl)ccc4NS(C)(=O)=O)nn23)C1 [Compound 105] | 0.1 to 100 | 100
CS(=O)(=O)Nc1ccc(Cl)cc1C(=O)N1CCCC[C@H]1c1cc2nc(N3CCC3)cc(N3CCSC3)n2n1 [Compound 106] | 0.1 to 100 | 100
C[C@@H]1CN(c2cc(N3CCC3)nc3cc([C@@H]4CCCCN4C(=O)c4cc(Cl)ccc4NS(C)(=O)=O)nn23)C[C@H](C)O1 [Compound 107] | 0.1 to 100 | 100
C[C@@H]1CN(c2cc(N3CC(O)C3)nc3cc([C@@H]4CCCCN4C(=O)c4cc(Cl)ccc4NS(C)(=O)=O)nn23)C[C@H](C)O1 [Compound 108] | 0.1 to 100 | 100
CC#Cc1cc(N2CCOCC2)n2nc([C@@H]3CCCCN3C(=O)c3cc(Cl)ccc3NS(C)(=O)=O)cc2n1 [Compound 110] | 0.1 to 100 | 100

More lines, main results first:

EC50 [nM] | SMILES | inhibition at 0.5 µM [%]
0.1 to 100 | Cc1ccc(NS(C)(=O)=O)c(C(=O)N2CCC(C)CC2c2cc3[nH]c(C)c(C)c(=O)n3n2)c1 (centres unmarked) [Compound 89] | 100
0.1 to 100 | Cc1cn2nc([C@@H]3CCCCN3C(=O)c3cc(Cl)ccc3NS(C)(=O)=O)cc2nc1N1CC(C)(O)C1 [Compound 96] | 97
0.1 to 100 | Cc1ccc(NS(C)(=O)=O)c(C(=O)N2CCCC[C@H]2c2cc3nc(C)c(C)c(N4CCCC4)n3n2)c1 [Compound 98] | 98
0.1 to 100 | Cc1nc2cc([C@@H]3CCCCN3C(=O)c3cc(Cl)ccc3NS(C)(=O)=O)nn2c(N(C)C)c1C [Compound 99] | 99
0.1 to 100 | Cc1nc2cc([C@@H]3CCCCN3C(=O)c3ccccc3NS(C)(=O)=O)nn2c(N(C)C)c1C [Compound 100] | 96
0.1 to 100 | Cc1ccc(NS(C)(=O)=O)c(C(=O)N2CCCC[C@H]2c2cc3nc(C)c(C)c(N(C)C)n3n2)c1 [Compound 101] | 100
0.1 to 100 | Cc1ccc(NS(C)(=O)=O)c(C(=O)N2CCCC[C@H]2c2cc3nc(C)c(C)c(NC4CC4)n3n2)c1 [Compound 102] | 98
0.1 to 100 | Cc1ccc(NS(C)(=O)=O)c(C(=O)N2CCCC[C@H]2c2cc3nc(C)c(C)c(C#N)n3n2)c1 [Compound 103] | 98
0.1 to 100 | Cc1ccc(NS(C)(=O)=O)c(C(=O)N2CCCC[C@H]2c2cc3nc(C)c(C)c(N4CCOCC4)n3n2)c1 [Compound 104] | 100
0.1 to 100 | Cc1cc(NS(C)(=O)=O)c(C(=O)N2CCCC[C@H]2c2cc3nc(C4CC4)cc(C)n3n2)s1 [Compound 111] | 95
0.1 to 100 | Cc1ccc(N2CCCC2=O)c(C(=O)N2CCCC[C@H]2c2cc3nc(C4CC4)cc(C)n3n2)c1 [Compound 112] | 97
0.1 to 100 | Cc1ccc(N2CCCS2(=O)=O)c(C(=O)N2CCCC[C@H]2c2cc3nc(C4CC4)cc(C)n3n2)c1 [Compound 113] | 100
0.1 to 100 | Cc1cc(C2CC2)nc2cc([C@@H]3CCCCN3C(=O)c3cc(N)ccc3NS(C)(=O)=O)nn12 [Compound 114] | 100
0.1 to 100 | CCc1ccc(NS(C)(=O)=O)c(C(=O)N2CCCC[C@H]2c2cc3nc(C4CC4)cc(C)n3n2)c1 [Compound 115] | 100
0.1 to 100 | CCc1ccc(NS(C)(=O)=O)c(C(=O)N2CCCC[C@H]2c2cc3[nH]c(C)c(C)c(=O)n3n2)c1 [Compound 116] | 98
0.1 to 100 | Cc1cc(C2CC2)nc2cc([C@@H]3CCCCN3C(=O)c3cc(F)c(F)cc3NS(C)(=O)=O)nn12 [Compound 117] | 99
0.1 to 100 | COC(=O)NC(C(=O)N1CCCC[C@H]1c1cc2nc(C3CC3)cc(C)n2n1)c1ccccc1 (some centres unmarked) [Compound 118] | 99
0.1 to 100 | Cc1cc(Cl)cc(C(=O)N2CCCC[C@H]2c2cc3[nH]c(C)c(C)c(=O)n3n2)c1NS(C)(=O)=O [Compound 120] | 100
0.1 to 100 | Cc1cc(C2CC2)nc2cc([C@@H]3CCCCN3C(=O)c3cc(F)cc(Br)c3NS(C)(=O)=O)nn12 [Compound 121] | 97
0.1 to 100 | Cc1cc(C2CC2)nc2cc([C@@H]3CCCCN3C(=O)c3cc(Br)ccc3NS(C)(=O)=O)nn12 [Compound 122] | 99
